We go through two compounds from US20100184703A1, “USE OF PEPTIDE DERIVATIVES FOR TREATING PATHOLOGIES RESULTING FROM ISCHEMIA” (CHIESI FARMACEUTICI S.p.A., priority 2007, published 2010).

Entries after “also recorded” stand apart in the source; their conditions may differ. Peptide text beside a SMILES is read from it. * marks the point of attachment. X1 = COC(=O)CC(N*)C(=O)COc1c(F)cccc1F; Quinaldoyl = O=C(c1ccc2ccccc2n1)*

One assay relates to TNFα, IL1β, IL10. In words: Multiplex assay (Luminex) of circulating cytokines after ischemia-reperfusion. The conditions noted are these: IR model; for circulating level of TNFα: injected 15 min prior to the reperfusion, compared to sham-operated; for IL-1β elevation / IL-10 elevation: within the first 24 hours of reperfusion. It is filed as in vivo, rat. As to the method:
Another series of experiments was conducted in the rat model of ischemia-reperfusion. Ischemia and reperfusion is well known to trigger an acute inflammatory process in animal model as well as in human. In our rat model, at the euthanasia, blood sample were collected in order to measure the inflammatory response on sera. This was performed by multiplex assay (Luminex technology). Three parameters were simultaneously measured at various time after myocardial reperfusion the pro inflammatory cytokines TNFα and IL1β as well as the anti-inflammatory cytokine IL10. […] B-C. […] In summary, caspase 2 inhibition prevents the acute inflammatory response occurring during the first 24 hours after myocardial reperfusion. *p<0.05 compared to sham-operated animals, n≧5 animals.

Another assay concerns the target T1, caspase-2 (Rattus norvegicus, UniProt P55215).
T1 construct: Each fragment of tissue was rapidly frozen in liquid nitrogen and kept at −80° C; from tissue; host or cells: rat myocardium (left ventricle, right ventricle, septum, apex) extracts
T1 sequence (P55215 170-325 limits assumed): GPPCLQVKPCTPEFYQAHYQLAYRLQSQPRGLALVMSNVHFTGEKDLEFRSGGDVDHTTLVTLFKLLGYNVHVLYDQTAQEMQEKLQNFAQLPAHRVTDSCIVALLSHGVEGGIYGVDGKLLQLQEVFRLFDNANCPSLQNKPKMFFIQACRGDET
T1 sequence (P55215 348-452 limits assumed): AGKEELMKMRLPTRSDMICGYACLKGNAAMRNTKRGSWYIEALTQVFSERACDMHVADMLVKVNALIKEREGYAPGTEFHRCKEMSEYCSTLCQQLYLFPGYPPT
In words: Dosage of caspase-2 activity in myocardial tissue, reperfusion ischemia (IR) model. The assay is classed as in vivo. Particulars: administered 15 min before the reperfusion, VGZI and septum.

The test system of assay [1] is single ventricular cardiomyocytes. In words: Ca2+ handling and cell shortening of cardiomyocytes isolated after ischemia-reperfusion. It is filed as in vivo, rat. Particulars: 30 min ischemia, 10 days reperfusion; for sarcoplasmic reticulum Ca2+ load: 10 mM caffeine, versus sham-operated; for amplitude of cytosolic Ca2+ transients: 0.5 Hz field stimulation. As to the method: Experiments were carried out on single ventricular cardiomyocytes isolated from rats after 30 minutes of myocardial ischemia followed by 10 days of reperfusion. Cardiomyocytes were loaded with a fluorescent calcium indicator (Fluo4) in order to measure calcium transient evoked by 0.5 Hz field stimulation. Cell shortening was also simultaneously recorded as an index of cardiomyocyte contraction. […] These deleterious effects classically reported by others in similar experimental conditions Under TRP601 or QV-D-oph treatment Ca^2+ transients amplitude was unchanged B. Similarly, Ca^2+ release kinetics estimated by the amplitude/time to peak (TT) ratio was slowed down in cardiomyocytes of untreated animals, whereas under TRP601 or QV-D-oph treatment Ca^2+ release was unaffected. C. Altered Ca^2+ transient kinetics in vehicle-treated animal are accompanied by a decrease in sarcoplasmic reticulum Ca^2+ load (estimated by application of 10 mM caffeine). […] (*p<0.05 compared to sham-operated animals, n≧5 animals).

The target of another assay is T2, caspase-3 (Rattus norvegicus, UniProt P55213).
T2 construct: from tissue; host or cells: rat myocardium (left ventricle, right ventricle, septum, apex) extracts
T2 sequence (P55213 29-175 limits assumed): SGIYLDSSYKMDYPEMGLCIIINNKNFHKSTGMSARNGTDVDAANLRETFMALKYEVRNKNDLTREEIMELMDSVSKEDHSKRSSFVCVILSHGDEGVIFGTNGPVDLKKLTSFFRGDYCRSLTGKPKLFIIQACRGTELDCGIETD
T2 sequence (P55213 176-277 limits assumed): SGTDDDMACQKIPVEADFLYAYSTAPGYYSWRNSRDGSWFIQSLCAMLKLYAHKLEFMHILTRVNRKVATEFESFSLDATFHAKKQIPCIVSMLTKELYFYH
In words: Dosage of caspase-3 activity in myocardial tissue, reperfusion ischemia (IR) model. It is filed as in vivo. Particulars: administered 15 min before the reperfusion, VGZI, VD, Apex and VGZNI. As to the method: The analyses were performed on 2 myocardial ischemia models: a chronic ischemia model and an acute ischemia model, followed by myocardial reperfusion after 30 min of occlusion.
Said models were realized with Wistar male rats (180-220 g). The coronary artery was ligatured according to Pfeffer et al protocol.
Briefly, the rats were anaesthetized by intraperitoneal administration of a mixture of Ketamine (150 mg/kg) and Xylazine (15 mg/kg), then intubated and mechanically ventilated. The animals were submitted to a left and median thoracotomy. An occlusion of the coronary artery was done with a silk wire (size: 7.0) at the more proximal point and below the auricle.
In the case of reperfusion ischemia model (IR model), the silk wire was untied after 30 min of occlusion. The artery was then cleared and the myocardial territory reperfused. The control animals (sham operated) were submitted to the same surgery protocol as the above animals, but the silk wire was passed under the coronary without making any ligature.
The animals were sacrificed by a pentobarbital lethal injection. The heart was excised and perfused about 5 min by Langerdorf reverse way using a calcium-free washing solution (in mM: NaCl 117 mM, KCl 5.7, NaHCO3 4.4, KH2PO4 1.5, MgCl2 1.7, HEPES 21, glucose 11, taurine 20, pH 7.2 adjusted with NaOH). The heart was then placed into a dissection tank and the different myocardial territories were taken (i.e. right ventricle (VD), septum, Apex, left ventricle (selectively in infarcted area (VGZI) and non-infarcted area (VGZNI)). Each fragment of tissue was rapidly frozen in liquid nitrogen and kept at −80° C.
Each tissue was then thawed and about 1-2 mm^3 was taken. […]
The supernatant was taken and divided into 2 tubes for of each sample. The tubes were placed at −80° C. before performing the spectrophotometric proteic dosage (BCA: cupper (II) sulphate+solution A of bicinchronic acid, DO measured at 550 nm) in transparent, with flat bottom, 96-well plates. […]

For the compound `COC(=O)CC(NC(=O)[C@H](C)NC(=O)[C@@H](NC(=O)[C@H](CC(=O)OC)NC(=O)[C@@H](NC(=O)c1ccc2ccccc2n1)C(C)C)C(C)C)C(=O)COc1c(F)cccc1F` (stereo partly drawn) [D1, (3S,6S,9S,12S)-methyl 15-(2-(2,6-difluorophenoxy)acetyl)-3,9-diisopropyl-6-(2-methoxy-2-oxoethyl)-12-methyl-1,4,7,10,13-pentaoxo-1-(quinolin-2-yl)-2,5,8,11,14-pentaazaheptadecan-17-oate] (Quinaldoyl-VD(OMe)VA-X1), in the assay on TNFα, IL1β, IL10, the “circulating level of TNFα” value is recorded as “not significantly different”, the IL-1β elevation entry is reported as “prevented” and the IL-10 elevation result is recorded as “prevented”. The caspase-2 activity result on caspase-2 is on record as “normalization of the activity; also recorded: specifically inhibits”. Besides, in assay [1], the “Ca2+ release kinetics (amplitude/time to peak ratio)” value is listed as “unaffected”, the cell shortening entry is “avoided cell shortening decreasing”, the “sarcoplasmic reticulum Ca2+ load” value is given as “not significantly different” and the “amplitude of cytosolic Ca2+ transients” value is “unchanged”. Also, the caspase-3 activity result on caspase-3 is on record as “normalization of the activity; also recorded: prevents the further activation”.

Consider `CC(C)[C@H](NC(=O)c1ccc2ccccc2n1)C(=O)N[C@@H](CC(=O)O)C(=O)COc1c(F)cccc1F` [Q-VD-OPH], for which, in the assay on TNFα, IL1β, IL10, the “circulating level of TNFα” value is “not significantly different”, the IL-1β elevation entry is given as “prevented” and the IL-10 elevation result is “prevented”. Moreover, the caspase-2 activity entry on caspase-2 is reported as “inhibits the activity of both caspases”. In addition, the caspase-2 activity result at caspase-2 (listed as QVDOPH) is “normalization of the activity”. In addition, in assay [1], the “Ca2+ release kinetics (amplitude/time to peak ratio)” value is “unaffected”, the cell shortening entry is recorded as “avoided cell shortening decreasing”, the “sarcoplasmic reticulum Ca2+ load” value is listed as “not significantly different” and the “amplitude of cytosolic Ca2+ transients” value is given as “unchanged”. Besides, on caspase-3, the caspase-3 activity result is “inhibits the activity of both caspases”. The caspase-3 activity entry on caspase-3 (listed as QVDOPH) is recorded as “normalization of the activity”.
